Values quoted from earlier work in patent publication US8809326B2, “Isoquinolinone Rho kinase inhibitors” (Aerie Pharmaceuticals, Inc., priority 2006, dated 2014).

Legend:
[1] = porcine, IL-1 beta-induced, long term treatment
[2] = rat stroke model

O=S(=O)(c1cccc2cnccc12)N1CCCNCC1 [fasudil]
coronary constrictive remodeling [1]: promote a regression of coronary constrictive remodeling | coronary stenosis [1]: progressively reduce coronary stenosis | infarct size [2]: reduce | neurologic deficit [2]: reduce
